Seven molecules from ChEMBL document CHEMBL1131699, “Monoacetyldiglycerides as new Ca2+ mobilizing agents in rat pancreatic acinar cells” (1999) can be followed below.

The structures appear in SMILES notation. Calls of active or inactive are those of the source. The rule behind the calls is not given here.

The species named for assay [1] is Rattus norvegicus. The assay is described as follows: Compound was tested in vitro for its ability to increase [Ca+2] in pancreatic acinar cells at a concentration of 0.01 mg/mL. It counts as functional.
The species entered for assay [2] is Rattus norvegicus. The assay is described as follows: Compound was tested in vitro for its ability to increase the rate of [Ca+2] mobilization in pancreatic acinar cells. It is filed as functional.
The species entered for assay [3] is Rattus norvegicus. The assay is described as follows: Compound was tested in vitro for its ability to increase [Ca+2] in pancreatic acinar cells at a concentration of 0.01 mg/mL; Active. It counts as functional, cell-based.

Turning to `CCCCC/C=C\C/C=C\CCCCCCCC(=O)OC(COC(C)=O)COC(=O)CCCCCCCCCCCCCCC` (centres undefined) [MOSEDIPIMOD], the “Increase in [Ca+2]” value in assay [1] is given as 84.9 nM. Further, the “Rate of [Ca+2] increase” value in assay [2] amounted to 9.8 nM/min. As for `CC/C=C\C/C=C\C/C=C\C/C=C\C/C=C\C/C=C\CCC(=O)OC(COC(C)=O)COC(=O)CCCCCCCCCCCCCCC` (centres undefined), the “Increase in [Ca+2]” value in assay [1] was 75.2 nM. Besides, the “Rate of [Ca+2] increase” value in assay [2] came out at 26.7 nM/min. Regarding `CCCCC/C=C\C/C=C\C/C=C\C/C=C\CCCC(=O)OC(COC(C)=O)COC(=O)CCCCCCCCCCCCCCC` (centres undefined), the “Increase in [Ca+2]” value in assay [1] is listed as 32.8 nM.

Take `CCCCCCCC/C=C\CCCCCCCC(=O)OCC(COC(C)=O)OC(=O)CCCCCCCCCCCCCCC` (centres undefined): the “Increase in [Ca+2]” value in assay [1] worked out at 31.2 nM.

For `CCCCCCCC/C=C\CCCCCCCC(=O)OC(COC(C)=O)COC(=O)CCCCCCCCCCCCCCC` (centres undefined), in assay [1], the “Increase in [Ca+2]” value was determined as 26.6 nM. Take `CCCCCCCCCCCCCCCC(=O)OCC(COC(C)=O)OC(=O)[C@H]1C[C@@H]1c1ccccc1` (some centres undefined): in assay [3], the “Increase in [Ca+2]” value was “Active”. With `CC/C=C\C/C=C\C/C=C\CCCCCCCC(=O)OC(COC(C)=O)COC(=O)CCCCCCCCCCCCCCC` (centres undefined), in assay [3], the “Increase in [Ca+2]” value was “Active”.
